# Like-named read-outs stand apart in the source and are kept apart here. Positions of bridges follow the written chain, without caps; N, C: chain ends. Non-standard residues stand in square brackets, D forms with d. Residues, ends and D or L forms follow the SMILES beside them. dBip = N[C@H](Cc1ccc(-c2ccccc2)cc1)C(=O)O; dPhe(4-NH2) = Nc1ccc(C[C@@H](N)C(=O)O)cc1; dPhe(4-Br) = N[C@H](Cc1ccc(Br)cc1)C(=O)O; dPhe(4-I) = N[C@H](Cc1ccc(I)cc1)C(=O)O; d(αMeF) = C[C@@](N)(Cc1ccccc1)C(=O)O; d(hPhe) = N[C@H](CCc1ccccc1)C(=O)O; Nle = CCCC[C@H](N)C(=O)O
# Key:
# human MC4R = molecular target: T1, human MC4R (Homo sapiens, UniProt P32245); assay: split-luciferase cAMP sensor assay, agonist mode (measurement window 1), hMC4R; assay type: cell-based; conditions: for Emax / MC4R cAMP % max activation / EC50: agonist mode; for Emax: read-out: MC4R cAMP % max activation
# T1 construct: host or cells: HEK-293 cells stably expressing the GScAMP22F split-luciferase cAMP sensor and hMC4R, G418 selection
# Summary of the method: (§1)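 EC50 values come from a four-parameter variable-slope fit of luminescence in measurement window 1, capturing direct peptide effects on receptor-expressing cells with a cAMP22f luciferase sensor. Cells were preloaded with 4% D-luciferin, serum-free medium; 20 μM forskolin normalized for cell number and transducer efficiency.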
# human MC3R = molecular target: T2, human MC3R (Homo sapiens, UniProt P41968); assay: split-luciferase cAMP sensor assay, agonist mode (measurement window 1), hMC3R; assay type: cell-based; conditions: for Emax / MC3R cAMP % max activation / EC50: agonist mode; for Emax: read-out: MC3R cAMP % max activation; for MC4R selectivity vs MC3R: MC4R versus MC3R
# T2 construct: expressed in transfected cells; host or cells: HEK-293 cells stably expressing the GScAMP22F split-luciferase cAMP sensor (parent reporter line from Promega); MC3R clone generated in-house, G418 selection
# Summary of the method: as §1
# [1] = hMC4R stable cell line, read-out: MC4R cAMP EC50
# [2] = hMC3R stable cell line, read-out: MC3R cAMP EC50
# T1 sequence (P32245 whole entry): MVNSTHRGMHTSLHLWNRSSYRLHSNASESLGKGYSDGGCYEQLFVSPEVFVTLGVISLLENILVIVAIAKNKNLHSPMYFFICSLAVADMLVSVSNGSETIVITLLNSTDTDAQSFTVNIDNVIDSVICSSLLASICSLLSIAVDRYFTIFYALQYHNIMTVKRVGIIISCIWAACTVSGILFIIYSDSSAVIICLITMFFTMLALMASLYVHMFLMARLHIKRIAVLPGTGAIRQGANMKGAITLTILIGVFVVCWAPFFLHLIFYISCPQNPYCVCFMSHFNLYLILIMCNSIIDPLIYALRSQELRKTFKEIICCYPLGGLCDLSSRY
# T2 sequence (P41968 whole entry): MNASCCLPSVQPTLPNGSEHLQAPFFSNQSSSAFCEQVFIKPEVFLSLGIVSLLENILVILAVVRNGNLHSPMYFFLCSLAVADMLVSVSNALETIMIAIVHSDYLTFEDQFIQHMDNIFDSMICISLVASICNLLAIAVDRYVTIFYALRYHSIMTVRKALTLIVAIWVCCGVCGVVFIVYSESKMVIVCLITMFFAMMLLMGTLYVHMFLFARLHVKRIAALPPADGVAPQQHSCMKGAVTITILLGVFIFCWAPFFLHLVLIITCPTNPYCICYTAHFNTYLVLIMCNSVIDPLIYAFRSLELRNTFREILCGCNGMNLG
SMILES,MC4R selectivity vs MC1R (human MC4R),MC4R selectivity vs MC3R (human MC4R),EC50 (human MC4R; [1]),Emax (human MC4R; hMC4R stable cell line),Emax (human MC3R; hMC3R stable cell line),also measured
"CCCC[C@H](NC(=O)[C@H](CCCNC(=N)N)NC(C)=O)C(=O)N[C@H]1CSSC[C@@H](C(N)=O)NC(=O)[C@H](Cc2ccccc2)NC(=O)[C@H](CCCNC(=N)N)NC(=O)[C@@H](Cc2ccc(Br)cc2)NC(=O)[C@H](CCCNC(=N)N)NC1=O [CTX-1623, Arg-Nle-cyclo(Cys-Arg-D-Phe(4-Br)-Arg-Phe-Cys)] (Ac-R[Nle]CR[dPhe(4-Br)]RFC-NH2; disulfide 3-8)",–,–,–,–,–,Emax (human MC4R; % maximal activation): 73%; Emax (human MC3R; % maximal activation): 62%
"CCCC[C@H](NC(=O)[C@H](CCCNC(=N)N)NC(C)=O)C(=O)N[C@H]1CSSC[C@@H](C(N)=O)NC(=O)[C@@H](Cc2c[nH]c3ccccc23)NC(=O)[C@H](CCCNC(=N)N)NC(=O)[C@@H](Cc2ccc(Br)cc2)NC(=O)[C@H](CCCNC(=N)N)NC1=O [CTX-1232, Arg-Nle-cyclo(Cys-Arg-D-Phe(4-Br)-Arg-D-Trp-Cys)] (Ac-R[Nle]CR[dPhe(4-Br)]R[dW]C-NH2; disulfide 3-8 (inferred))",0.39,2.44,2.4 nM,–,–,MC4R cAMP % max activation (human MC4R; hMC4R stable cell line): (46%); MC3R cAMP % max activation (human MC3R; hMC3R stable cell line): (41%)
"CC(=O)N[C@@H](CCCNC(=N)N)C(=O)N[C@H]1CSSC[C@@H](C(N)=O)NC(=O)[C@@H](Cc2c[nH]c3ccccc23)NC(=O)[C@H](CCCNC(=N)N)NC(=O)[C@@H](CCc2ccccc2)NC(=O)[C@H](CCCNC(=N)N)NC(=O)[C@@H](C)NC1=O [CTX-1239, Arg-cyclo(Cys-D-Ala-Arg-D-Hph-Arg-D-Trp-Cys)] (Ac-RC[dA]R[d(hPhe)]R[dW]C-NH2; disulfide 2-8)",0.1,0.3,–,–,–,MC4R cAMP % max activation (human MC4R; hMC4R stable cell line): (28%); MC3R cAMP % max activation (human MC3R; hMC3R stable cell line): (7.9%)
"CC(=O)N[C@@H](CCCNC(=N)N)C(=O)N[C@H]1CSSC[C@@H](C(N)=O)NC(=O)[C@H](Cc2c[nH]c3ccccc23)NC(=O)[C@H](CCCNC(=N)N)NC(=O)[C@@H](Cc2ccc(Br)cc2)NC(=O)[C@H](Cc2c[nH]cn2)NC(=O)[C@@H](C)NC1=O [CTX-2206, Arg-cyclo(Cys-D-Ala-His-D-Phe(4-Br)-Arg-Trp-Cys)]",–,7.35,–,98%,28%,"EC50 (human MC4R; hMC4R stable cell line, unit inferred, read-out: MC4R cAMP EC50): 3 nM; EC50 (human MC3R; [2]): 22 nM"
"CC(=O)N[C@@H](CCCNC(=N)N)C(=O)N[C@H]1CSSC[C@@H](C(N)=O)NC(=O)[C@@H](Cc2c[nH]c3ccccc23)NC(=O)[C@H](CCCNC(=N)N)NC(=O)[C@@H](Cc2ccc(-c3ccccc3)cc2)NC(=O)[C@H](CCCNC(=N)N)NC(=O)[C@@H](C)NC1=O [CTX-1243, Arg-cyclo(Cys-D-Ala-Arg-D-Bip-Arg-D-Trp-Cys)] (Ac-RC[dA]R[dBip]R[dW]C-NH2; disulfide 2-8 (inferred))",0.21,0.38,–,32%,7.7%,–
"CC(=O)N[C@@H](CCCNC(=N)N)C(=O)N[C@H]1CSSC[C@@H](C(N)=O)NC(=O)[C@@H](Cc2ccccc2)NC(=O)[C@H](CCCNC(=N)N)NC(=O)[C@@H](Cc2ccc(Br)cc2)NC(=O)[C@H](CCCNC(=N)N)NC(=O)[C@@H](C)NC1=O [CTX-1255, Arg-cyclo(Cys-D-Ala-Arg-D-Phe(4-Br)-Arg-D-Phe-Cys)] (Ac-RC[dA]R[dPhe(4-Br)]R[dF]C-NH2; disulfide 2-8 (inferred))",0.05,0.24,–,60%,28%,–
"C[C@H]1NC(=O)[C@@H](NC(=O)[C@H](CCCNC(=N)N)NC(=O)COCCOCCNC(=O)COCCOCCNC(=O)CNC(=O)CCc2ccc(I)cc2)CSSC[C@@H](C(N)=O)NC(=O)[C@@H](Cc2c[nH]c3ccccc23)NC(=O)[C@H](CCCNC(=N)N)NC(=O)[C@@H](Cc2ccc(Br)cc2)NC(=O)[C@H](CCCNC(=N)N)NC1=O [CTX-1226, Arg-cyclo(Cys-D-Ala-Arg-D-Phe(4-Br)-Arg-D-Trp-Cys)]",–,–,–,71%,29%,–
"CCCC[C@H](NC(=O)[C@H](CCCNC(=N)N)NC(C)=O)C(=O)N[C@H]1CSSC[C@@H](C(N)=O)NC(=O)[C@@H](Cc2c[nH]c3ccccc23)NC(=O)[C@H](CCCNC(=N)N)NC(=O)[C@@H](Cc2ccc(I)cc2)NC(=O)[C@H](Cc2c[nH]cn2)NC1=O [CTX-1233, Arg-Nle-cyclo(Cys-His-D-Phe(4-I)-Arg-D-Trp-Cys)] (Ac-R[Nle]CH[dPhe(4-I)]R[dW]C-NH2; disulfide 3-8 (inferred))",0.26,1.88,2.2 nM,16%,22%,EC50 (human MC3R; [2]): 4.1 nM
"CC(=O)N[C@@H](CCCNC(=N)N)C(=O)N[C@H]1CSSC[C@@H](C(N)=O)NC(=O)[C@@H](Cc2c[nH]c3ccccc23)NC(=O)[C@H](CCCNC(=N)N)NC(=O)[C@@](C)(Cc2ccccc2)NC(=O)[C@H](CCCNC(=N)N)NC(=O)[C@@H](C)NC1=O [CTX-1279, Arg-cyclo(Cys-D-Ala-Arg-a-Me-D-Phe-Arg-D-Trp-Cys)] (Ac-RC[dA]R[d(αMeF)]R[dW]C-NH2; disulfide 2-8)",0.83,0.61,72 nM,79%,20%,–
"COc1ccc(C[C@H]2NC(=O)[C@H](CCCNC(=N)N)NC(=O)CNC(=O)[C@@H](NC(C)=O)CSSC[C@@H](C(N)=O)NC(=O)[C@H](Cc3ccccc3)NC(=O)[C@H](CCCNC(=N)N)NC2=O)cc1 [CTX-1641, cyclo(Cys-Gly-Arg-D-Tyr(4-OMe)-Arg-Phe-Cys)] (Ac-CGR[dY](Me)RFC-NH2; disulfide 1-7)",0.28,1.18,–,104%,22%,EC50 (human MC3R; [2]): 52 nM
"CC(=O)N[C@H]1CSSC[C@@H](C(N)=O)NC(=O)[C@H](Cc2c[nH]c3ccccc23)NC(=O)[C@H](CCCNC(=N)N)NC(=O)[C@@H](Cc2ccccc2)NC(=O)[C@H](Cc2c[nH]cn2)NC(=O)[C@@H](C)NC1=O [CTX-1207, cyclo(Cys-D-Ala-His-D-Phe-Arg-Trp-Cys)]",–,–,–,–,–,"Emax (human MC4R; % maximal activation): 96%; EC50 (human MC4R; MC4R cAMP EC50, HEK-293 cells stably expressing hMC4R): 0.91 nM; Emax (human MC3R; % maximal activation): 89%; EC50 (human MC3R; MC3R cAMP EC50, HEK-293 cells stably expressing hMC3R): 8.1 nM; MC4R selectivity vs MC3R (human MC3R): 8.87"
"CCCC[C@H](NC(=O)[C@H](CCCNC(=N)N)NC(C)=O)C(=O)N[C@H]1CSSC[C@@H](C(N)=O)NC(=O)[C@H](Cc2c[nH]c3ccccc23)NC(=O)[C@H](CCCNC(=N)N)NC(=O)[C@@H](Cc2ccc(Br)cc2)NC(=O)[C@H](CCCNC(=N)N)NC1=O [CTX-1612, Arg-Nle-cyclo(Cys-Arg-D-Phe(4-Br)-Arg-Trp-Cys)] (Ac-R[Nle]CR[dPhe(4-Br)]RWC-NH2; disulfide 3-8 (inferred))",0.09,2.27,2 nM,25%,27%,EC50 (human MC3R; [2]): 4.5 nM
"CC(=O)N[C@H]1CSSC[C@@H](C(N)=O)NC(=O)[C@H](Cc2c[nH]c3ccccc23)NC(=O)[C@H](CCCNC(=N)N)NC(=O)[C@@H](Cc2ccccc2)NC(=O)[C@H](Cc2c[nH]cn2)NC(=O)CNC1=O [CTX-1206, cyclo(Cys-Gly-His-D-Phe-Arg-Trp-Cys)] (Ac-CGH[dF]RWC-NH2; disulfide 1-7 (inferred))",–,–,–,–,–,"Emax (human MC4R; % maximal activation): 101%; EC50 (human MC4R; HEK-293 cells stably expressing hMC4R, read-out: MC4R cAMP EC50): 0.52 nM; Emax (human MC3R; % maximal activation): 94%; EC50 (human MC3R; HEK-293 cells stably expressing hMC3R, read-out: MC3R cAMP EC50): 12 nM; MC4R selectivity vs MC3R (human MC3R): 23"
"CC(=O)Nc1ccc(C[C@H]2NC(=O)[C@H](CCCNC(=N)N)NC(=O)[C@@H](C)NC(=O)[C@@H](NC(=O)[C@H](CCCNC(=N)N)NC(C)=O)CSSC[C@@H](C(N)=O)NC(=O)[C@@H](Cc3c[nH]c4ccccc34)NC(=O)[C@H](CCCNC(=N)N)NC2=O)cc1 [CTX-1245, Arg-cyclo(Cys-D-Ala-Arg-D-Phe(4-NH-Ac)-Arg-D-Trp-Cys)] (Ac-RC[dA]R[dPhe(4-NH2)](Ac)R[dW]C-NH2; disulfide 2-8)",–,–,–,34%,6.3%,–
"CC(=O)N[C@@H](CCCNC(=N)N)C(=O)N[C@H]1CSSC[C@@H](C(N)=O)NC(=O)[C@H](Cc2c[nH]c3ccccc23)NC(=O)[C@H](CCCNC(=N)N)NC(=O)[C@@H](Cc2c[nH]c3ccccc23)NC(=O)[C@H](CCCNC(=N)N)NC(=O)[C@@H](C)NC1=O [CTX-1274, Arg-cyclo(Cys-D-Ala-Arg-D-Trp-Arg-Trp-Cys)] (Ac-RC[dA]R[dW]RWC-NH2; disulfide 2-8)",0.19,0.12,1400 nM,77%,5.4%,–
"CC(=O)N[C@@H](CCCNC(=N)N)C(=O)N[C@H]1CSSC[C@@H](C(N)=O)NC(=O)[C@@H](C)NC(=O)[C@H](CCCNC(=N)N)NC(=O)[C@@H](Cc2ccc(Br)cc2)NC(=O)[C@H](CCCNC(=N)N)NC(=O)[C@@H](C)NC1=O [CTX-1260, Arg-cyclo(Cys-D-Ala-Arg-D-Phe(4-Br)-Arg-D-Ala-Cys)] (Ac-RC[dA]R[dPhe(4-Br)]R[dA]C-NH2; disulfide 2-8)",0.01,0.05,–,38%,13%,–

# Reference: US20240391954A1, “MC4R AGONIST PEPTIDES” (The Regents of the University of Michigan, priority 2021, published 2024)
